Experimental data published in patent US9957271B2, “Substituted bicyclic aza-heterocycles and analogues as sirtuin modulators” (GlaxoSmithKline, LLC, priority 2012, dated 2018).

Legend:
SIRT1 [1] = biological target: T1, SIRT1 (Homo sapiens, UniProt Q96EB6); assay: Trp mass spectrometry assay of SIRT1 activity; type: biochemical; details: Trp peptide substrate; for Trp EC1.5 (μM): concentration of test compound giving 150% activation of SIRT1; for Emax: percent maximum fold activation of SIRT1, read-out: Trp % Fold Act
T1 sequence (Q96EB6 1-747): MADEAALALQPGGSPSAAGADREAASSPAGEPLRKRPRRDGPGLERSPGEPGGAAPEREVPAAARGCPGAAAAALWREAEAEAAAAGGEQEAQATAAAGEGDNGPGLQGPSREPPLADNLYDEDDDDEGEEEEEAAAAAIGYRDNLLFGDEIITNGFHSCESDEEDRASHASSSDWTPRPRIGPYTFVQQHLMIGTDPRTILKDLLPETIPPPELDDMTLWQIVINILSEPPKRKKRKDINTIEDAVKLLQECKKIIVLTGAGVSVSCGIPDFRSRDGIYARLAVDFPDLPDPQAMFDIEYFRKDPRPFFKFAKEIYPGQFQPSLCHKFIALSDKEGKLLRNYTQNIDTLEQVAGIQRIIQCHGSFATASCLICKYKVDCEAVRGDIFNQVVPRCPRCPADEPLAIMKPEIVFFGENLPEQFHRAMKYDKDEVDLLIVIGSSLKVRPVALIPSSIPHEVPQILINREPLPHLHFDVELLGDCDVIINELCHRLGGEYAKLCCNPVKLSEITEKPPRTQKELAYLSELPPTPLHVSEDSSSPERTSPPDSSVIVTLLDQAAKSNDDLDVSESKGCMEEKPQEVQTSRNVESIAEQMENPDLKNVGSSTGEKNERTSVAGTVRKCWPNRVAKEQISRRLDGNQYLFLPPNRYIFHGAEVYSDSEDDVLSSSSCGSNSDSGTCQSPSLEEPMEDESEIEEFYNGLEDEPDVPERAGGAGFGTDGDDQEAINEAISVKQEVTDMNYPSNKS
Summary of the method: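 Activation readout: EC1.5 (concentration raising activity 50% over control) and percent maximum activation, from mass-spec quantitation of OAADPR or deacetylated Trp peptide. Reaction: 0.5 μM acetylated Trp peptide, 120 μM βNAD+, 10 nM bacterially expressed N-His SIRT1, pH 7.5 HEPES buffer with […], 25 min at 25° C.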

SIRT1 [2] = biological target: T1, SIRT1; assay: TAMRA based mass spectrometry assay of SIRT1 activity; type: biochemical; details: TAMRA peptide substrate; for TAMRA EC1.5 (μM): concentration of test compound giving 150% activation of SIRT1; for Emax: percent maximum fold activation of SIRT1, read-out: TAMRA % Fold Act
Summary of the method: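 Deacetylation of a biotinylated, TAMRA-tagged p53-based peptide (0.5 μM) by 10 nM His-tagged SIRT1 with 120 μM βNAD+, 25 °C for 25 min, pH 8 Tris-acetate buffer, across a compound concentration range. Quenched by formic acid and read by mass spec as product peptide or OAADPR; activity relative to DMSO reactions, nicotinamide defining maximal inhibition.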

Compound	Trp EC1.5 (μM) (SIRT1 [1])	Emax (SIRT1 [1]) [%]	TAMRA EC1.5 (μM) (SIRT1 [2])	Emax (SIRT1 [2]) [%]
O=C(Nc1ncc(CN2CCOCC2)s1)c1cnc2ccc(-c3ccccc3C(F)(F)F)nn12 [Compound 150]	B (EC1.5 1-25 μM)	< 350	B (EC1.5 1-25 μM)	< 350
Cc1csc(NC(=O)c2cnc3ccc(-c4ccccc4C(F)(F)F)nn23)n1 [Compound 152]	A (EC1.5<1 μM)	≥ 350	A (EC1.5<1 μM)	≥ 350
CN(C)CCn1cc(NC(=O)c2cnc3ccc(-c4ccccc4C(F)(F)F)nn23)cn1 [Compound 155]	C (EC1.5>25 μM)	< 350	B (EC1.5 1-25 μM)	< 350
O=C(Nc1cccc(N2CCOCC2)n1)c1cnc2ccc(-c3c(F)cccc3Cl)nn12 [Compound 164]	B (EC1.5 1-25 μM)	< 350	A (EC1.5<1 μM)	≥ 350
O=C(Nc1cccc(CN2CCOCC2)n1)c1cnc2ccc(-c3c(F)cccc3F)nn12 [Compound 172]	C (EC1.5>25 μM)	< 350	B (EC1.5 1-25 μM)	≥ 350
COc1nccc(NC(=O)c2cnc3ccc(-c4ccccc4C(F)(F)F)nn23)n1 [Compound 173]	B (EC1.5 1-25 μM)	≥ 350	A (EC1.5<1 μM)	≥ 350
O=C(Nc1cnccc1N1CCOCC1)c1cnc2ccc(-c3ccccc3C(F)(F)F)nn12 [Compound 177]	C (EC1.5>25 μM)	< 350	C (EC1.5>25 μM)	< 350
CS(=O)(=O)c1ccccc1-c1ccc2ncc(C(=O)Nc3ccnc(N4CCC4)c3)n2n1 [Compound 186]	C (EC1.5>25 μM)	< 350	B (EC1.5 1-25 μM)	< 350
Cc1cc(-c2ccccc2C(F)(F)F)nn2c(C(=O)Nc3cccc(N4CCOCC4)n3)cnc12 [Compound 192]	A (EC1.5<1 μM)	≥ 350	A (EC1.5<1 μM)	≥ 350

Results, then the compound that gave them:

Trp EC1.5 (μM) (SIRT1 [1])	Emax (SIRT1 [1]) [%]	TAMRA EC1.5 (μM) (SIRT1 [2])	Emax (SIRT1 [2]) [%]	Compound
B (EC1.5 1-25 μM)	< 350	A (EC1.5<1 μM)	< 350	O=C(Nc1ccnc(N2CCC2)c1)c1cnc2ccc(-c3cccc(Cl)c3F)nn12 [Compound 159]
C (EC1.5>25 μM)	< 350	B (EC1.5 1-25 μM)	< 350	O=C(Nc1ccncc1)c1cnc2ccc(-c3c(F)cccc3Cl)nn12 [Compound 161]
C (EC1.5>25 μM)	< 350	C (EC1.5>25 μM)	< 350	O=C(Nc1ccccn1)c1cnc2ccc(-c3c(F)cccc3F)nn12 [Compound 167]
B (EC1.5 1-25 μM)	< 350	A (EC1.5<1 μM)	< 350	O=C(Nc1ccnc(N2CCC2)c1)c1cnc2ccc(-c3c(F)cccc3F)nn12 [Compound 170]
B (EC1.5 1-25 μM)	≥ 350	A (EC1.5<1 μM)	≥ 350	COc1ccnc(NC(=O)c2cnc3ccc(-c4ccccc4C(F)(F)F)nn23)n1 [Compound 175]
B (EC1.5 1-25 μM)	< 350	B (EC1.5 1-25 μM)	< 350	O=C(Nc1ccccn1)c1cnc2ccc(-c3cccc(F)c3Cl)nn12 [Compound 182]
C (EC1.5>25 μM)	< 350	B (EC1.5 1-25 μM)	< 350	O=C(Nc1cccnc1)c1cnc2ccc(-c3cccc(F)c3Cl)nn12 [Compound 183]
C (EC1.5>25 μM)	< 350	C (EC1.5>25 μM)	< 350	CS(=O)(=O)c1ccccc1-c1ccc2ncc(C(=O)Nc3cccnc3)n2n1 [Compound 189]
